According to patent US20210106569A1, “OMIDENEPAG COMBINATION” (priority 2017, published 2021):

Columns and labels:
normal pressure monkeys [1] = assay: Intraocular pressure lowering, concomitant administration of omidenepag isopropyl and netarsudil (Example 2); format: in vivo, cynomolgus monkey; details: male cynomolgus monkeys, average of 8, eye drop 20 μL: omidenepag isopropyl 0.0006 w/v%, netarsudil 0.01 w/v% (dimesylate)
Protocol: (§1) In order to examine usefulness of the combination of omidenepag or an ester thereof or a salt thereof and netarsudil, the effect of lowering an intraocular pressure when omidenepag isopropyl and netarsudil were administered concomitantly to experimental animals (normal pressure monkeys) was investigated.
(1) Preparation of Base of Omidenepag Isopropyl Solution • (Preparation of Compound Solution to be Tested) […]
(2) Preparation of Omidenepag Isopropyl Solution
(§2) To purified water were added omidenepag isopropyl, polyoxyl 35 castor oil, glycerin, sodium citrate, sodium edetate and benzalkonium chloride to dissolve them, and after adjusting pH, purified water was added to adjust the whole amount to prepare a 0.0006 w/v% omidenepag isopropyl solution.
(3) Preparation of Netarsudil Solution
Dimesylate of netarsudil was dissolved in a physiological saline solution containing a solubilizing agent, and then, a netarsudil solution having a desired concentration was prepared by using a commonly used method.
(§3) An effect of lowering an intraocular pressure when omidenepag isopropyl and netarsudil were administered concomitantly was investigated. As a comparative subject, an effect of lowering an intraocular pressure when omidenepag isopropyl or netarsudil was administered alone was also investigated. As a control, the base of the omidenepag isopropyl solution and the base of the netarsudil solution were administered.
Omidenepag isopropyl solution: 0.0006w/v% omidenepag isopropyl solution (volume of eye dropped: 20 μL)
Netarsudil solution: 0.01 w/v% netarsudil solution (volume of eye dropped: 20 μL)
Experimental animal: cynomolgus monkey (sex: male, 8 monkeys per a group)
[1] Contamitant Administration of Omidenepag Isopropyl and Netarsudil
(§4) (1) A drop of 0.4% oxybuprocaine hydrochloride eye drop (trade name: Benoxil (Registered Trademark) eye drops 0.4%) was applied to one eye of an experimental animal and local anesthesia was conducted.
(§5) (2) Immediately before administration of a compound solution to be tested, an intraocular pressure was measured and the value was made an initial intraocular pressure.
(3) The omidenepag isopropyl solution was applied to one eye of the experimental animal (the contralateral eye was untreated). After a short time (after about 5 minutes), the netarsudil solution was applied to the same eye.
(4) After 2 hours, 4 hours, 6 hours, 8 hours and 24 hours from applying the omidenepag isopropyl solution to the eye, one drop of 0.4% oxybuprocaine hydrochloride eye drop was applied to the eye to be measured for the intraocular pressure respectively, and after local anesthesia, the intraocular pressure was measured. Also, the intraocular pressure was measured each three times, and the average value was shown in the results. […]
The test was carried out in the same manner as the above-mentioned concomitant administration test except for changing the omidenepag isopropyl solution to the base of the omidenepag isopropyl solution. […]
The changes in the intraocular pressure values are shown by an average value±SEM of the difference from the value (0 hour) before administration of eight monkeys in each group with regard to each measurement time point of each individual. Here, the significance was evaluated by the Dunnett-Hsu test, and the significance level with respect to the control group was shown as *: p<0.05, **: p<0.01, and ***: p<0.001, the significance level with respect to the omidenepag isopropyl administered group was shown as †: p<0.05, ††: p<0.01, and †††: p<0.001, and the significance level with respect to the netarsudil administered group was shown as ♯♯: p<0.01, and ♯♯♯p<0.001.

normal pressure monkeys [2] = assay: Intraocular pressure lowering, concomitant administration of omidenepag isopropyl and ripasudil (Example 1); format: in vivo, cynomolgus monkey; details: male cynomolgus monkeys, average of 7, eye drop 20 μL: omidenepag isopropyl 0.0006 w/v%, ripasudil eye drops 0.4%
Protocol: as §1, with “ripasudil,” for “netarsudil,”, “ripasudil” for “netarsudil”
To purified water were added polyoxyl 35 castor oil, glycerin, sodium citrate, sodium edetate and benzalkonium chloride to dissolve them, and after adjusting pH, purified water was added to adjust the whole amount.
as §2
Commercially available physiological saline solution (trade name: Otsuka Normal Saline, obtained from Otsuka Pharmaceutical Factory, Inc.) was used as it was.
Commercially available ripasudil eye drop was used as it was.
as §3, with “ripasudil” for “netarsudil”, “base” for “base of the omidenepag isopropyl solution”, “physiological saline” for “base of the netarsudil”
Omidenepag isopropyl solution: 0.0006w/v% omidenepag isopropyl solution (volume of eye dropped: 20 μL) Ripasudil solution: ripasudil eye drop (trade name: Glanatec (Registered Trademark) eye drops 0.4%, volume of eye dropped: 20 μL)
Experimental animal: cynomolgus monkey (sex: male, 7 monkeys per a group)
[1] Concomitant Administration of Omidenepag Isopropyl and Ripasudil
as §4, §5
(3) The omidenepag isopropyl solution was applied to one eye of the experimental animal (the contralateral eye was untreated). After a short time (after about 5 minutes), the ripasudil solution was applied to the same eye.
(4) After 2 hours, 4 hours, 6 hours, 8 hours and 24 hours from applying the omidenepag isopropyl solution to the eye, one drop of 0.4% oxybuprocaine hydrochloride eye drop was applied to the eye to be measured for the intraocular pressure respectively, and after local anesthesia, the intraocular pressure was measured. Also, the intraocular pressure was measured each three times, and the average value was shown in the results.
[2] Single Administration of Omidenepag Isopropyl
The test was carried out in the same manner as the above-mentioned concomitant administration test except for changing the ripasudil solution to the physiological saline solution.
[3] Single Administration of Ripasudil
The test was carried out in the same manner as the above-mentioned concomitant administration test except for changing the omidenepag isopropyl solution to the base.
The test was carried out in the same manner as the above-mentioned concomitant administration test except for changing the omidenepag isopropyl solution to the base and changing the ripasudil solution to the physiological saline solution.
The changes in the intraocular pressure values are shown by an average value±SEM of the difference from the value (0 hour) before administration of seven monkeys in each group with regard to each measurement time point of each individual. […]

## Cc1ccc(C(=O)OCc2ccc([C@@H](CN)C(=O)Nc3ccc4cnccc4c3)cc2)c(C)c1 [Netarsudil, [4-[(1S)-1-(aminomethyl)-2-(isoquinolin-6-ylamino)-2-oxoethyl]phenyl]methyl 2,4-dimethylbenzoate]
Normal pressure monkeys [1]; 2 hours after dropping
  change in intraocular pressure value (difference from value before administration): −1.5
Normal pressure monkeys [1]; 4 hours after dropping
  change in intraocular pressure value (difference from value before administration): −2.3
Normal pressure monkeys [1]; 6 hours after dropping
  change in intraocular pressure value (difference from value before administration): −3.0
Normal pressure monkeys [1]; 8 hours after dropping
  change in intraocular pressure value (difference from value before administration): −3.0
Normal pressure monkeys [1]; 24 hours after dropping
  change in intraocular pressure value (difference from value before administration): −0.8

## CC(C)OC(=O)CNc1cccc(CN(Cc2ccc(-n3cccn3)cc2)S(=O)(=O)c2cccnc2)n1 [Omidenepag isopropyl, isopropyl (6-{[4-(pyrazol-1-yl)benzyl](pyridin-3-ylsulfonyl)aminomethyl}pyridin-2-ylamino)acetate]
Normal pressure monkeys [1]; 2 hours after dropping
  change in intraocular pressure value (difference from value before administration): −0.9
Normal pressure monkeys [1]; 4 hours after dropping
  change in intraocular pressure value (difference from value before administration): −2.5
Normal pressure monkeys [1]; 6 hours after dropping
  change in intraocular pressure value (difference from value before administration): −2.5
Normal pressure monkeys [1]; 8 hours after dropping
  change in intraocular pressure value (difference from value before administration): −2.3
Normal pressure monkeys [1]; 24 hours after dropping
  change in intraocular pressure value (difference from value before administration): −0.3
Normal pressure monkeys [2]; 2 hours after dropping
  change in intraocular pressure value (difference from value before administration): 0.0
Normal pressure monkeys [2]; 4 hours after dropping
  change in intraocular pressure value (difference from value before administration): −1.2
Normal pressure monkeys [2]; 6 hours after dropping
  change in intraocular pressure value (difference from value before administration): −0.7
Normal pressure monkeys [2]; 8 hours after dropping
  change in intraocular pressure value (difference from value before administration): −0.6
Normal pressure monkeys [2]; 24 hours after dropping
  change in intraocular pressure value (difference from value before administration): −0.1

## C[C@H]1CNCCCN1S(=O)(=O)c1cccc2cncc(F)c12 [Ripasudil, (S)-(-)-1-(4-fluoro-5-isoquinolinesulfonyl) 2-methyl-1,4-homopiperazine]
Normal pressure monkeys [2]; 2 hours after dropping
  change in intraocular pressure value (difference from value before administration): −2.7
Normal pressure monkeys [2]; 4 hours after dropping
  change in intraocular pressure value (difference from value before administration): −1.6
Normal pressure monkeys [2]; 6 hours after dropping
  change in intraocular pressure value (difference from value before administration): −1.6
Normal pressure monkeys [2]; 8 hours after dropping
  change in intraocular pressure value (difference from value before administration): −0.8
Normal pressure monkeys [2]; 24 hours after dropping
  change in intraocular pressure value (difference from value before administration): 0.0
